Patent US7569690B2, “Process for producing oxycarbonyl-substituted piperazine derivative” (Toray Fine Chemicals Co., Ltd., priority 2002, dated 2009)

Key:
[1] = Thermal stability of the oxycarbonyl-substituted piperazine derivative (standing at temperature, liquid chromatography purity); assay type: physicochemical
Experimental: It was confirmed that the stability of the compound is greatly affected by the temperature and the heating time period.
It was noticed that when, for example, 1-benzyloxycarbonyl-3-methylpiperazine with a purity of 99.3 liquid chromatography area % was allowed to stand at 120° C., 160° C. or 200° C. for 12 hours, their liquid chromatography purity declined to 99.0 liquid chromatography area %, 95.6 liquid chromatography area % and 59.7 liquid chromatography area % respectively, and that the liquid chromatography purity of 1-benzyl-4-benzyloxycarbonyl-2-methylpiperazine corresponding to the compound represented by the general formula (7) rose to 0.2 liquid chromatography area %, 3.2 liquid chromatography area % and 30.7 liquid chromatography area % respectively.
Furthermore, when the compound was allowed to stand at 160° C. for 1 hour, the purity was 98.8 liquid chromatography area %, and it can be seen that the decomposition rate was small compared with the case of 12 hours.
For measuring the contents of the impurities contained in the oxycarbonyl-substituted piperazine derivative represented by the general formula (2), liquid chromatography is used. The analytical column for liquid chromatography used for analysis is a column using an octadecyl -based composition as a packing material. Particularly the use of Capcellpak C18, 120 angstroms, 5 μm, 4.6 mm×150 mm (Shiseido) is desirable.
The mobile phase is 5 mM sodium dodecyl sulfate (hereinafter abbreviated as SDS) aqueous solution (pH 2.5, phosphoric acid)/acetonitrile, and a gradient method for changing the composition with the lapse of time is used for analysis. That is, the acetonitrile content in the mobile phase is kept at 31 vol % from the start of analysis to 15 minutes later, and the acetonitrile content is then increased at a constant rate up to 45 vol %, taking 10 minutes, being kept at 45 vol % from 25 minutes later to 40 minutes later. The detector used is a UV measuring instrument, and the detection wavelength is 210 nm. The detection wavelength is very important, and if the detection wavelength is changed, the analyzed value may change. The reason is that the maximum wavelength of UV absorption changes depending on the compound. In this system, it is desirable that the wavelength is from 210 to 230 nm at which the ratios of the absorption sensitivity of the compound represented by the general formula (2) to the absorption sensitivities the compounds represented by the general formulae (5) to (8) are from 0.6 to 1.5. Analysis is made at a column oven temperature of 40° C. In the case where analysis is made under the above-mentioned analytical conditions, the retention times of 1-benzyloxycarbonyl-3-methylpiperazine and the impurities corresponding to the general formulae (5) to (8), i.e., 1,4-bis(carbobenzyloxy)-2-methylpiperazine, 1-benzyl-3-methylpiperazine, 4-benzyloxycarbonyl-1-benzyl-2-methylpiperazine and benzyl alcohol were 23.1 minutes, 31.0 minutes, 31.0 minutes, 30.0 minutes and 2.7 minutes respectively. The values of their area percentages can be used to obtain the impurity contents.

[2] = cited from earlier work

SMILES | Liquid chromatography purity of decomposition product 1-benzyl-4-benzyloxycarbonyl-2-methylpiperazine after standing ([1]; 120° C. for 12 hours) | Liquid chromatography purity after standing ([1]; 120° C. for 12 hours, starting purity 99.3 liquid chromatography area %) | Liquid chromatography purity after standing ([1]; 160° C. for 1 hour) | Liquid chromatography purity of decomposition product 1-benzyl-4-benzyloxycarbonyl-2-methylpiperazine after standing ([1]; 160° C. for 12 hours) | Liquid chromatography purity after standing ([1]; 160° C. for 12 hours, starting purity 99.3 liquid chromatography area %) | Liquid chromatography purity of decomposition product 1-benzyl-4-benzyloxycarbonyl-2-methylpiperazine after standing ([1]; 200° C. for 12 hours) | Liquid chromatography purity after standing ([1]; 200° C. for 12 hours, starting purity 99.3 liquid chromatography area %) | pKa [2]
CC1CN(C(=O)OCc2ccccc2)CCN1 (stereo not drawn) [1-benzyloxycarbonyl-3-methylpiperazine] | 0.2 liquid chromatography area % | 99.0 liquid chromatography area % | 98.8 liquid chromatography area % | 3.2 liquid chromatography area % | 95.6 liquid chromatography area % | 30.7 liquid chromatography area % | 59.7 liquid chromatography area % | 
COc1ccccn1 [2-methoxypyridine] |  |  |  |  |  |  |  | 6.62
c1cn[nH]c1 [pyrazole] |  |  |  |  |  |  |  | 2.5
